From patent US4465668A, “Method for improving intestinal absorption of cephalosporin derivatives” (Asahi Kasei Kogyo Kabushiki Kaisha, priority 1981, dated 1984)

Assay: Absorption test: blood concentration after oral administration to rats
Settings: rat; for Blood concentration of Compound (I): suspended in 0.7% CMC aqueous solution, group average (5 animals); for Blood Concentration of Compound (II): dissolved in buffer aqueous solution pH 7; for Blood Concentration of Compound (II) / Blood Concentration of Compound (III) / Blood Concentration of Compound (IV) / Blood Concentration of Compound (V) / Blood Concentration of Compound (VI) / Blood Concentration of Compound (VII) / Blood Concentration of Compound (VIII) / Blood Concentration of Compound (IX): group average; for Blood Concentration of Compound (III) / Blood Concentration of Compound (IV) / Blood Concentration of Compound (V) / Blood Concentration of Compound (VI) / Blood Concentration of Compound (VII) / Blood Concentration of Compound (VIII) / Blood Concentration of Compound (IX): suspended in 0.7% CMC
Experimental: The absorption test of the compounds were measured by the following methods.
Male Wistar rats weighing 180-250 g were fed with only water overnight. The next day the rats were orally administered with 50 mg/kg of a test compound which was suspended in a 0.7% CMC aqueous solution. The concentration of the compound in blood of the tested animals (one group consisting of 5 animals) was measured 0.5, 1, 2 and 4 hours after the administration by Bioassay method by using Bacillus subtilis ATCC 6633 strain as an indicator bacteria. In the measurement, an ordinary culture medium was employed, and the preparation of the standard solution and other method were carried out in according to Japanese Antibiotical Pharmaceutical Standards. Further, the concentration of the compound in blood was also measured by high performance liquid chromatography. The blood concentration shown in the examples was an average value of each animal group.
The absorption test of 7-[2-(2-thienyl)-acetoamido]-3-[2-(L-prolyl-L-lysylaminomethyl-1,3,4-thiadiazolyl)-thiomethyl]-3-cephem-4-carboxylic acid formic acid salt was carried out by orally administering the salt which was dissolved in a buffer aqueous solution having the pH of 7. The results are as follows:
The same procedures as described in Example 8 were repeated except that other oligopeptides were employed instead of the α-tert-butyloxycarbonyl-L-prolyl-ε-tert-butyloxycarbonyl-L-lysine. The absorption test of these compounds thus obtained was carried out in the same manner as described in Example 8.

## CC(C)C[C@H](N)C(=O)N[C@@H](Cc1ccccc1)C(=O)OC(C(=O)NC1C(=O)N2C(C(=O)O)=C(CSc3nnnn3C)CS[C@H]12)c1ccccc1.O=CO (stereo partly drawn) [Example 1, 7-D-(O-L-leucyl-L-phenylalanyl)-mandelamido-3-(1-methyl-1H-tetrazol-5-yl-thiomethyl)-3-cephem-4-carboxylic acid formic acid salt]
0.5 hr after oral 50 mg/kg
  Blood concentration of Compound (I): 4.51 µg/mL
1 hr after oral 50 mg/kg
  Blood concentration of Compound (I): 3.70 µg/mL
2 hrs after oral 50 mg/kg
  Blood concentration of Compound (I): 1.93 µg/mL
4 hrs after oral 50 mg/kg
  Blood concentration of Compound (I): 0.83 µg/mL

## NCCCC[C@H](NC(=O)[C@@H]1CCCN1)C(=O)NCc1nnc(SCC2=C(C(=O)O)N3C(=O)C(NC(=O)Cc4cccs4)C3SC2)s1.O=CO (stereo partly drawn) [Example 8, 7-[2-(2-thienyl)-acetoamido]-3-[2-(L-prolyl-L-lysylaminomethyl-1,3,4-thiadiazolyl)-thiomethyl]-3-cephem-4-carboxylic acid formic acid salt]
0.5 hr after oral 50 mg/kg
  Blood Concentration of Compound (II): 2.14 µg/mL
1 hr after oral 50 mg/kg
  Blood Concentration of Compound (II): 1.77 µg/mL
2 hrs after oral 50 mg/kg
  Blood Concentration of Compound (II): 1.04 µg/mL
4 hrs after oral 50 mg/kg
  Blood Concentration of Compound (II): 0.07 µg/mL

## Cc1nnc(SCC2=C(C(=O)OCOC(=O)[C@H](CCCCN)NC(=O)[C@@H](N)CC(C)C)N3C(=O)C(NC(=O)Cc4csc(N)n4)C3SC2)s1.Cl (stereo partly drawn) [Example 15, 7-[2-(2-amino-4-thiazolyl)acetoamido-3-(5-methyl-1,3,4-thiadiazolyl)thiomethyl]-3-cephem-4-carboxylic acid L-leucyl-L-lysyloxymethyl ester hydrochloric acid salt]
0.5 hr after oral 50 mg/kg
  Blood Concentration of Compound (III): 1.96 µg/mL
1 hr after oral 50 mg/kg
  Blood Concentration of Compound (III): 2.37 µg/mL
2 hrs after oral 50 mg/kg
  Blood Concentration of Compound (III): 1.03 µg/mL
4 hrs after oral 50 mg/kg
  Blood Concentration of Compound (III): 0.24 µg/mL

## CC(=O)OCC1=C(C(=O)O)N2C(=O)[C@@H](NC(=O)CSCCNC(=O)[C@H](CC(C)C)NC(=O)[C@@H](N)Cc3ccccc3)[C@H]2SC1.O=C(O)C(F)(F)F [Example 19, 7β-(2-L-phenylalanyl-L-leucylamidoethylthioacetoamido)-3-acetoxymethyl-3-cephem-4-carboxylic acid trifluoroacetic acid salt]
0.5 hr after oral 50 mg/kg
  Blood Concentration of Compound (IV): 1.07 µg/mL
1 hr after oral 50 mg/kg
  Blood Concentration of Compound (IV): 0.21 µg/mL
2 hrs after oral 50 mg/kg
  Blood Concentration of Compound (IV): 0.09 µg/mL
4 hrs after oral 50 mg/kg
  Blood Concentration of Compound (IV): < 0.01 µg/mL

## CO/N=C(\C(=O)N[C@@H]1C(=O)N2C(C(=O)O)=C(COC(C)=O)CS[C@H]12)c1csc(NC(=O)[C@H](Cc2ccccc2)NC(=O)[C@@H](N)CC(C)C)n1.O=CO [Example 22, 7β-[2-(2-L-leucyl-L-phenylalanylamidothiazol-4-yl)-(Z)-2-methoxyiminoacetoamido]cephalosporanic acid formic acid salt]
0.5 hr after oral 50 mg/kg
  Blood Concentration of Compound (V): 1.69 µg/mL
1 hr after oral 50 mg/kg
  Blood Concentration of Compound (V): 1.83 µg/mL
2 hrs after oral 50 mg/kg
  Blood Concentration of Compound (V): 1.53 µg/mL
4 hrs after oral 50 mg/kg
  Blood Concentration of Compound (V): 1.03 µg/mL

## CO/N=C(\C(=O)N[C@@H]1C(=O)N2C(C(=O)O)=C(CSc3nnnn3C)CS[C@H]12)c1csc(NC(=O)[C@H](CCCCN)NC(=O)[C@@H](N)CC(C)C)n1.O=CO [Example 25, 7β-[2-(2-L-leucyl-L-lysylamidothiazol-4-yl)-(Z)-2-methoxyiminoacetoamido]-3-[(1-methyl-1H-tetrazol-5-yl)-thiomethyl]-3-cephem-4-carboxylic acid formic acid salt]
0.5 hr after oral 50 mg/kg
  Blood Concentration of Compound (VI): 2.11 µg/mL
1 hr after oral 50 mg/kg
  Blood Concentration of Compound (VI): 1.67 µg/mL
2 hrs after oral 50 mg/kg
  Blood Concentration of Compound (VI): 1.10 µg/mL
4 hrs after oral 50 mg/kg
  Blood Concentration of Compound (VI): < 0.1 µg/mL

## CO/N=C(\C(=O)N[C@@H]1C(=O)N2C(C(=O)O)=CCS[C@H]12)c1csc(NC(=O)[C@H](Cc2ccccc2)NC(=O)[C@@H](N)CCSC)n1.O=CO [Example 27, 7β-[2-(2-L-methionyl-L-phenylalanylamidothiazol-4-yl)-(Z)-2-methoxyiminoacetamido]-3-cephem-4-carboxylic acid formic acid salt]
0.5 hr after oral 50 mg/kg
  Blood Concentration of Compound (VII): 2.13 µg/mL
1 hr after oral 50 mg/kg
  Blood Concentration of Compound (VII): 1.84 µg/mL
2 hrs after oral 50 mg/kg
  Blood Concentration of Compound (VII): 1.00 µg/mL
4 hrs after oral 50 mg/kg
  Blood Concentration of Compound (VII): 0.21 µg/mL

## COC1(NC(=O)CSCC#N)C(=O)N2C(C(=O)OCOC(=O)[C@H](CCCCN)NC(=O)[C@@H](N)CC(C)C)=C(CSc3nnnn3C)CSC21.Cl (stereo partly drawn) [Example 29, 7β-[(cyanomethyl)thio]acetoamido-7α-methoxy-3-[(1-methyl-1H-tetrazol-5-yl)thio]methyl-3-cephem-4-carboxylic acid L-leucyl-L-lysyloxymethyl ester hydrochloric acid salt]
0.5 hr after oral 50 mg/kg
  Blood Concentration of Compound (VIII): 3.14 µg/mL
1 hr after oral 50 mg/kg
  Blood Concentration of Compound (VIII): 2.37 µg/mL
2 hrs after oral 50 mg/kg
  Blood Concentration of Compound (VIII): 1.04 µg/mL
4 hrs after oral 50 mg/kg
  Blood Concentration of Compound (VIII): 0.32 µg/mL

## Cc1nnc(SCC2=C(C(=O)OCOC(=O)[C@H](CCCCN)NC(=O)[C@@H](N)CC(C)C)N3C(=O)C(NC(=O)Cn4cnnn4)C3SC2)s1.Cl (stereo partly drawn) [Example 35, 7-[1-(1H)-tetrazolylacetamido]-3-[2-(5-methyl-1,3,4-thiazolyl)-thiomethyl]-3-cephem-4-carboxylic acid L-leucyl-L-lysyloxymethyl ester hydrochloric acid salt]
0.5 hr after oral 50 mg/kg
  Blood Concentration of Compound (IX): 5.64 µg/mL
1 hr after oral 50 mg/kg
  Blood Concentration of Compound (IX): 3.84 µg/mL
2 hrs after oral 50 mg/kg
  Blood Concentration of Compound (IX): 1.87 µg/mL
4 hrs after oral 50 mg/kg
  Blood Concentration of Compound (IX): 0.74 µg/mL

## Cn1nnnc1SCC1=C(C(=O)O)N2C(=O)C(NC(=O)[C@H](OC(=O)[C@@H](N)Cc3ccccc3)c3ccccc3)C2SC1.O=CO (stereo partly drawn) [compound 1, 7-D-(O-L-phenylalanyl)-mandelamido-3-(1-methyl-1H-tetrazol-5-yl-thiomethyl)-3-cephem-4-carboxylic acid formic acid salt, reference compound]
0.5 hr after oral 50 mg/kg
  Blood concentration of Compound (I): 0.21 µg/mL
1 hr after oral 50 mg/kg
  Blood concentration of Compound (I): 0.23 µg/mL
2 hrs after oral 50 mg/kg
  Blood concentration of Compound (I): 0.08 µg/mL
4 hrs after oral 50 mg/kg
  Blood concentration of Compound (I): 0.02 µg/mL
